According to ChEMBL document CHEMBL1201862, “PubChem BioAssay data set” (2004):
pIC50: −log10 of the molar value. The source made the active and inactive calls.

What was measured:
Mu-type opioid receptor [1] = target: T1, Mu-type opioid receptor (Homo sapiens, UniProt P35372); test: (§1) Counterscreen for agonists of heterodimerization of the mu 1 (OPRM1) and delta 1 (OPRD1) opioid receptors: Luminescence-based cell-based high throughput dose response assay to identify agonists of OPRM1 homodimerization.; type: functional
[2] = target: T2, Short transient receptor potential channel 4 (Mus musculus, UniProt Q9QUQ5); test: calcium entry via TRPC4 opening agents – cell-based, HEK293 TRPC4/mu-opioid, Fluo-4 calcium, dose response (AID 434937); type: functional
T2 sequence (Q9QUQ5 whole entry): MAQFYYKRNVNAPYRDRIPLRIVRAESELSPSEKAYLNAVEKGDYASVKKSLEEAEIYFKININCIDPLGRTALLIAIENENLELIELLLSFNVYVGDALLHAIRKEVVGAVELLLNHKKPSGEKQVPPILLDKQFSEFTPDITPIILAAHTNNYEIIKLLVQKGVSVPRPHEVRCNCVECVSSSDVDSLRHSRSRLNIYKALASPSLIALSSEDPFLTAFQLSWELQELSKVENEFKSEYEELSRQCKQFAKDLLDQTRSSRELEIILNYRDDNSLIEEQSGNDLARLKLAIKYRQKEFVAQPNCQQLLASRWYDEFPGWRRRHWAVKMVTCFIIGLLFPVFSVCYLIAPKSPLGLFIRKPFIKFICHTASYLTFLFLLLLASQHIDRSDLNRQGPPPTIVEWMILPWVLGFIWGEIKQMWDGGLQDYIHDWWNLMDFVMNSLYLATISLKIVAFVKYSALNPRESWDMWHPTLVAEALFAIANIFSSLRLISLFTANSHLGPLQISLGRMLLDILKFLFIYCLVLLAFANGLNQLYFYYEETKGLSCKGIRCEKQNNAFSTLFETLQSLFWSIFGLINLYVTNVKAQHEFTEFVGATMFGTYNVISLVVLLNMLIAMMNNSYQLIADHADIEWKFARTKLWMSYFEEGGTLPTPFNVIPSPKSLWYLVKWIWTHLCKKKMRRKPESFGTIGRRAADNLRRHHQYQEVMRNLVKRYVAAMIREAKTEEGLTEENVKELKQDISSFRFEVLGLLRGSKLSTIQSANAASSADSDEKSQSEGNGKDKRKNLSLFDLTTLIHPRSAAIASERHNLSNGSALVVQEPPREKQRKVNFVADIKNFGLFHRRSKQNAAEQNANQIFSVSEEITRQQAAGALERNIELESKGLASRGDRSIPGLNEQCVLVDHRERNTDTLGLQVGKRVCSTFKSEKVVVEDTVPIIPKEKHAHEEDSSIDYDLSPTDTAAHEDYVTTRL

[3] = target: 5-hydroxytryptamine receptor 5A (Homo sapiens, UniProt P47898); test: Counterscreen for agonists of OPRM1-OPRD1 heterodimerization: luminescence-based cell-based high throughput dose response assay to identify agonists of 5-hydroxytryptamine (serotonin) 5A receptor (HTR5A). [Related pubchem assays (depositor defined):AID504326, AID504355, AID504692, AID504904, AID504905]; type: functional
[4] = target: T3, Delta-type opioid receptor (Homo sapiens, UniProt P41143); test: as §1, with “of OPRD1” for “of OPRM1”, “homodimerization. [Related pubchem assays (depositor defined):AID504326, AID504355, AID504692, AID504904, AID504905]” for “homodimerization.”; type: functional
[5] = target: Dual specificity protein kinase CLK1 (Homo sapiens, UniProt P49759); test: inhibition of human CLK1 activity – biochemical, cherry-picked samples, selectivity assay for Dyrk1A inhibitor project, dose response (AID 588811)
[6] = target: Cyclin-dependent kinase 2 (Homo sapiens, UniProt P24941); test: inhibition of human CDK2/cyclin A – biochemical, cherry-picked samples, selectivity assay for Dyrk1A inhibitor project, dose response (AID 602127)
[7] = NIH3T3 cell viability loss – ATP luminescence, mouse fibroblasts, counter-screen, dose response (AID 2010); type: functional, cell-based;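 further: cells exposed to compound for about 90 hours before reading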
[8] = THP-1 cell cytotoxicity, dose response, cytotoxicity control for non-replicating M. tuberculosis project (AID 489025); type: functional
[9] = target: T4, Kappa-type opioid receptor (Homo sapiens, UniProt P41145); type: functional
[10] = target: T4, Kappa-type opioid receptor; type: functional; remark: listed apart in the source
[11] = target: T3, Delta-type opioid receptor; test: HTS Image-Based Screen for Antagonists of the DOR Receptor. [Related pubchem assays (depositor defined):AID1777, AID1785, AID1786, AID2133]; type: functional
[12] = Vero E6 cell cytotoxicity, dose response, cytotoxicity control for non-replicating M. tuberculosis project, secondary assay (AID 492998); type: functional, VeroE6; conditions: Vero C1008
Beta-galactosidase [13] = target: T5, Beta-galactosidase (Escherichia coli, UniProt Q8VNN2); test: PubChem AID 485352; type: functional
Streptococcus = test: GAS UMAA2166 growth inhibition – luminescence, BacTiterGlo, counter-screen for streptokinase expression inhibitor project, dose response (AID 1915); type: functional, organism-based;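 further: potency for reduction of bacterial viability or growth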
[14] = target: T3, Delta-type opioid receptor; test: HTS Image-Based Screen for Agonists of the DOR Receptor. [Related pubchem assays (depositor defined):AID1777, AID1786, AID2133]; type: functional
Beta-galactosidase [15] = target: T5, Beta-galactosidase; type: functional
[16] = target: Type-1 angiotensin II receptor (Homo sapiens, UniProt P30556); test: antagonism of angiotensin II type 1 receptor – cell-based, uHTS hits, selectivity assay for APJ receptor antagonist project, dose response (AID 463214); type: functional;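 further: antagonist potency against angiotensin II stimulated AT1 response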
cells = type: functional
[17] = tested on: Streptococcus sp. 'group A'; test: Streptococcus pyogenes SK(-)GAS viability under kanamycin – luminescence, BacTiterGlo, confirmation, counter-screen for streptokinase expression inhibitor project, dose response (AID 1900); type: functional, organism-based
[18] = HepG2 cell cytotoxicity, dose response, cytotoxicity control for non-replicating M. tuberculosis project (AID 489018); type: functional; conditions: Mycobacterium tuberculosis
Mu-type opioid receptor [19] = target: T1, Mu-type opioid receptor; test: HTS Image-Based Screen for Agonists of the MOR Receptor. [Related pubchem assays (depositor defined):AID1777, AID1785, AID1786, AID2133]; type: functional
[20] = Trypanosoma cruzi growth suppression in host cells – NIH3T3 host cells, beta-gal luminescence, confirmation (AID 2044); type: functional, cell-based;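 further: intracellular parasites grown in NIH/3T3 mouse fibroblasts as host cells; luminescent beta-galactosidase reporter signal from transgenic T. cruzi replicating inside host cells; inhibitors lower the luminescence signal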
DNA topoisomerase = DNA topoisomerase (Yersinia pestis, UniProt A0A2S9PM60); test: Yersinia topoisomerase I cleavage product accumulation – biochemical, cherry-pick, dose response (AID 588525)
[21] = target: Beta-2 adrenergic receptor (Homo sapiens, UniProt P07550); test: ADRB2 activation measured by internalization – cell-based, FAP fluorogen, flow cytometry, cherry pick 1, dose response (AID 588763); type: functional
Sequence of Beta-2 adrenergic receptor (P07550 whole entry): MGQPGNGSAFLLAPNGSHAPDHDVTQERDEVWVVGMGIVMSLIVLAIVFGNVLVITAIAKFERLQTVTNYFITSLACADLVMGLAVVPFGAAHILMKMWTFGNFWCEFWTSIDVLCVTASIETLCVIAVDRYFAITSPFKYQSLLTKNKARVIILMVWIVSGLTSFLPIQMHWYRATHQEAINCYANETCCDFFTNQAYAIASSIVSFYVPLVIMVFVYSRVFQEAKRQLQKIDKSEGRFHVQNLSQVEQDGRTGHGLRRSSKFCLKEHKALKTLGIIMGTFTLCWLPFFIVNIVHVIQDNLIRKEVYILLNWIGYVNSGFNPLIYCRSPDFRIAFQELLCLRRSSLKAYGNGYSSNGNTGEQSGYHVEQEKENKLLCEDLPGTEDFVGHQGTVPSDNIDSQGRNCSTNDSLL

T3 sequence (P41143 whole entry): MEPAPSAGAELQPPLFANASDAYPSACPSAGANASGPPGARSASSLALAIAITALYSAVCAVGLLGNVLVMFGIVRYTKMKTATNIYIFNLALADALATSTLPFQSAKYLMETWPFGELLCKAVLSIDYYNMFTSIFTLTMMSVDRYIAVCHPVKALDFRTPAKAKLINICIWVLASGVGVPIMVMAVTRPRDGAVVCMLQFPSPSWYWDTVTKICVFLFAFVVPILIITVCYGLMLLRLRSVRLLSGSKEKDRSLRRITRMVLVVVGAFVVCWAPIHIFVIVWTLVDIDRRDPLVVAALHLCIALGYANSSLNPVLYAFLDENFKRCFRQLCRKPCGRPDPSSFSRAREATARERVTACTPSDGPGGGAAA
T5 sequence (Q8VNN2 whole entry): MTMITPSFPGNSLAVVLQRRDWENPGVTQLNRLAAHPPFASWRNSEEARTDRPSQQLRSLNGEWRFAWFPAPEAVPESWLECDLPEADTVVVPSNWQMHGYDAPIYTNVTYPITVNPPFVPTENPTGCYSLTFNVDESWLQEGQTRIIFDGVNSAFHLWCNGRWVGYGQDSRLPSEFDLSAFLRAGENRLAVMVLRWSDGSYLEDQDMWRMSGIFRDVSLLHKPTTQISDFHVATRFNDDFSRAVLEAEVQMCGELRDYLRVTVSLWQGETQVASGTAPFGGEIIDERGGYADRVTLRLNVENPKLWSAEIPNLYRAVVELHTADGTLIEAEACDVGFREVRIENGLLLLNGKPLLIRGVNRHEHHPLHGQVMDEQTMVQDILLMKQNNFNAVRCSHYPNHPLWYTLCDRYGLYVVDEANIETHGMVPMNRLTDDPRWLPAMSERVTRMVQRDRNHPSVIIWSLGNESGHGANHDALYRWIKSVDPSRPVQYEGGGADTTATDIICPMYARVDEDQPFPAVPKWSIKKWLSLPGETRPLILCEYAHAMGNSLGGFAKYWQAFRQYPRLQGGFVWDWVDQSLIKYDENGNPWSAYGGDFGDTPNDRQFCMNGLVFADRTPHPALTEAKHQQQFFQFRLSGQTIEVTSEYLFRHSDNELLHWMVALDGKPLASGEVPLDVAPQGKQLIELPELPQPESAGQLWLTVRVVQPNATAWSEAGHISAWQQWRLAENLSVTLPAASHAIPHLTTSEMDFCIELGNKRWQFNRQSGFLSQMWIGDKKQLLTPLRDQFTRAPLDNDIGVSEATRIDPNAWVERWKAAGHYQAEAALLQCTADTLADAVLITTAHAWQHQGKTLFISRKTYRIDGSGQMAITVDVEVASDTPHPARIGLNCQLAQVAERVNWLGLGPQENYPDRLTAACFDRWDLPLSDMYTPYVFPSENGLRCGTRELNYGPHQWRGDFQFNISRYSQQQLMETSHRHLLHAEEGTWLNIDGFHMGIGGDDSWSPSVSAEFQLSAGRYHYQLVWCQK
T4 sequence (P41145 whole entry): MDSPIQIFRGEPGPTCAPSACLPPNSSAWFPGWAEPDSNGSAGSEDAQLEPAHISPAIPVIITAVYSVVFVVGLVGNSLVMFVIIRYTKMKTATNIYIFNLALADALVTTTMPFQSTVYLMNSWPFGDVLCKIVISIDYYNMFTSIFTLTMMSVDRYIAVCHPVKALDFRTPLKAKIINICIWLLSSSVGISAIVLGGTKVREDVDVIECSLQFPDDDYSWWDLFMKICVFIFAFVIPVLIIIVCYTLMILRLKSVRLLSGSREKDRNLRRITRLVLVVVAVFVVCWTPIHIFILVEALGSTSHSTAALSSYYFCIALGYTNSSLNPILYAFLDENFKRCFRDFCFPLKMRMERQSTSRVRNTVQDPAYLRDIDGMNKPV
T1 sequence (P35372 whole entry): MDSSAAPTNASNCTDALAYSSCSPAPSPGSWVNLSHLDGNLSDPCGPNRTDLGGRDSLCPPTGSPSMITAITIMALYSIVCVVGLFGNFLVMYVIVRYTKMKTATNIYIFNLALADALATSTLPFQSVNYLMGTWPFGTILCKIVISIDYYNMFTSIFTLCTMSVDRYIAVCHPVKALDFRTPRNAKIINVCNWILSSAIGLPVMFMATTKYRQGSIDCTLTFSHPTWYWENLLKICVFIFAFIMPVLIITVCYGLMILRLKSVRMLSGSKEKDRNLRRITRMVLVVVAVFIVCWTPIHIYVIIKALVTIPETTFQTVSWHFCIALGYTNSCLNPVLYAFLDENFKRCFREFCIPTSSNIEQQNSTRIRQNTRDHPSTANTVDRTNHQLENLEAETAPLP
Sequence of 5-hydroxytryptamine receptor 5A (P47898 whole entry): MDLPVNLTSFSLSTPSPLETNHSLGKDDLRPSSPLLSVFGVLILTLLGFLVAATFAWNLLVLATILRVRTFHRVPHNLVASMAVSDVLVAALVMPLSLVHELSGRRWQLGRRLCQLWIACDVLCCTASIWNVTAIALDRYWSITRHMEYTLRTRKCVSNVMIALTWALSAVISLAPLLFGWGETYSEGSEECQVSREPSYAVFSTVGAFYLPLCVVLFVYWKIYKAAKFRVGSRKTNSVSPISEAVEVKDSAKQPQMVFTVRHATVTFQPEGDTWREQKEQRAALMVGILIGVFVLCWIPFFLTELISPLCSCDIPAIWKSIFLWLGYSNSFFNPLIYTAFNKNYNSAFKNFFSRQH
Sequence of Dual specificity protein kinase CLK1 (P49759 whole entry): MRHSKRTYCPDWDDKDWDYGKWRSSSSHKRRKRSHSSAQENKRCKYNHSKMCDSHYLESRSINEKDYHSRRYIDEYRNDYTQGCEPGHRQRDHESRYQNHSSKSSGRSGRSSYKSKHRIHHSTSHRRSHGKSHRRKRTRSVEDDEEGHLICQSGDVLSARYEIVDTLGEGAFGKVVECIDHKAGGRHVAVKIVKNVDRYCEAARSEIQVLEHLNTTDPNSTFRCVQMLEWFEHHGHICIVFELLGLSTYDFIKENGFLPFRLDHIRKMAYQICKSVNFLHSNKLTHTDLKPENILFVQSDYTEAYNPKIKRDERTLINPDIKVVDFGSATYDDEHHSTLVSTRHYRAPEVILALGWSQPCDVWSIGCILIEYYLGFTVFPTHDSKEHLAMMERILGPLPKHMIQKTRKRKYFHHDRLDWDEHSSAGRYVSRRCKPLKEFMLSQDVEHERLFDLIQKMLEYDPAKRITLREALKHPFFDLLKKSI
Sequence of Type-1 angiotensin II receptor (P30556 whole entry): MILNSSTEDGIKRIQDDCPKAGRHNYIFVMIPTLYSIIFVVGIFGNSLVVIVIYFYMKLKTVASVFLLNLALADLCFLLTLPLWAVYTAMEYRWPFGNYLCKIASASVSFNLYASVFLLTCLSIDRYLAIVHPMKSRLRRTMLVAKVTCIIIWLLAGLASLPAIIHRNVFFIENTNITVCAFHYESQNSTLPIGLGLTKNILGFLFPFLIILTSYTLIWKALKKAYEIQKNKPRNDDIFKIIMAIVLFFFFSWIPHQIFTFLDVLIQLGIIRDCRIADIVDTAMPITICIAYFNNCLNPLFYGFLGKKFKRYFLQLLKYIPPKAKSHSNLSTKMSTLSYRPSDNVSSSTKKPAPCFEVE
Sequence of DNA topoisomerase (A0A2S9PM60 whole entry): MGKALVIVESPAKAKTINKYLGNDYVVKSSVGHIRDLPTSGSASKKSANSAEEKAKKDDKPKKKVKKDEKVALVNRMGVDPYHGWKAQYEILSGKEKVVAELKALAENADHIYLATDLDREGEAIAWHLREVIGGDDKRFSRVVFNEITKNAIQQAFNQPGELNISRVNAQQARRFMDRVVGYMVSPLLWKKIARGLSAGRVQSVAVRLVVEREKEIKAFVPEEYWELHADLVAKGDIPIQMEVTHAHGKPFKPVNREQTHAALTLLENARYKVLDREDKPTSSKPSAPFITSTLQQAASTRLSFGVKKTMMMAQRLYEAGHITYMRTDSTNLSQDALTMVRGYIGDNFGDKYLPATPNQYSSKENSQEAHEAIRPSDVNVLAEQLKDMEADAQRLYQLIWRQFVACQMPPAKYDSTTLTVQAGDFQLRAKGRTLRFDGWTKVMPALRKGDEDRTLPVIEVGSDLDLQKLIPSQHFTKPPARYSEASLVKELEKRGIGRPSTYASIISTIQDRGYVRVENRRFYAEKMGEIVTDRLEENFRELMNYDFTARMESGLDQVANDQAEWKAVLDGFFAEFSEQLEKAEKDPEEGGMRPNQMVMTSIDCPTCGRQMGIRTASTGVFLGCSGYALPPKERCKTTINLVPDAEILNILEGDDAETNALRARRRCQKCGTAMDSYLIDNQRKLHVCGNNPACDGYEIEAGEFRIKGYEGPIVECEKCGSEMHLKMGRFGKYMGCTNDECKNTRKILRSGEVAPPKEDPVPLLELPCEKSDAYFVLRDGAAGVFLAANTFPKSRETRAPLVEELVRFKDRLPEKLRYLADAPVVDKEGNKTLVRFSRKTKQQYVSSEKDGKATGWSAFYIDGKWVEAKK

SMILES: COc1ccc(C(CNC(=O)CCc2ccsc2)N(C)C)cc1 (centres undefined)
- EC50 (Mu-type opioid receptor [1]): 1.42 µM (active)
- EC50 [2]: 0.0147 µM (active)
- EC50 [3]: > 92.4 µM (inactive)
- EC50 [4]: 25.6 µM (inactive)

SMILES: Cc1ccsc1CN(C)c1ncnc2ccc(-c3ccoc3)cc12
- AC50 [5]: 0.0138 µM (active)
- AC50 [6]: 7.77 µM (active)

SMILES: Cc1[nH]c2ccccc2c1/C=C1\SC(=N)N(c2nccs2)C1=O
- EC50 [7]: 5.8 µM (active)
- CC50 [8]: 10.1 µM (active)
- pIC50 [9]: 4.74
- IC50 [10]: 6.76 µM (active)
- IC50 [11]: 23.4 µM (inactive)
- CC50 [12]: 5.16 µM (active)
- EC50 (Beta-galactosidase [13]): > 40 µM (inactive)
- EC50 (Streptococcus): 1.08 µM (active)
- EC50 [14]: > 32 µM (inactive)
- EC50 (Beta-galactosidase [15]): > 31.5 µM (inactive)
- IC50 [16]: 14.8 µM (active)
- IC50 (cells): < 0.1 µM (active)
- EC50 [17]: 0.198 µM (active)
- CC50 [18]: 8.83 µM (active)
- EC50 (Mu-type opioid receptor [19]): > 32 µM (inactive)
- EC50 [20]: 1.17 µM (active)

SMILES: Cc1ccc(SCc2cc(O)nc(Nc3nc(C)c4ccc(C)cc4n3)n2)cc1
- AC50 (DNA topoisomerase): 2.96 µM (active)

SMILES: CN(C)c1ccc(-c2noc(C3CCN(S(=O)(=O)c4cccc(Cl)c4)CC3)n2)cc1
- EC50 [21]: 1.23 µM (active)
